{"source": "patent US8765720B2", "about": "“Combination therapy for the treatment of multiple myeloma” (Cephalon, Inc., priority 2009, dated 2014)", "key": {"MM1S cells": {"test_system": "MM1S cells", "assay": "Cell viability assay (MTS assay), MM1S cells", "type": "cell-based, human", "conditions": "48 hours", "description": "In vitro synergy between COMPOUND 1 and bortezomib or melphalan was assessed using the median effect method of Chou and Talalay (30). Combination indices (CIs) were calculated separately for each combination. […] CIs between 0.9 and 1.1 were considered to indicate additive drug effects (31)."}, "RPMI8226 cells [1]": {"test_system": "RPMI8226 cells", "assay": "Apoptotic assay by annexin V and propidium iodide staining", "type": "cell-based, human", "conditions": "2.5 nM for each drug, 30 hours", "description": "To quantify apoptosis in response to drug treatment, RPMI8226 cells (5×10^5 cells per well) were incubated with vehicle or PIs at 37° C. and 5% CO2 for 30 hours. As a positive control, cells were incubated with 250 ng/mL of actinomycin D for 24 or 48 hours. Cells were then washed twice with phosphate-buffered saline, resuspended in binding buffer (100 mM HEPES/NaOH, pH 7.5 containing 1.4 M NaCl and 25 mM CaCl2), and stained with fluorescein isothiocyanate (FITC)-conjugated annexin V and with the fluorescent dye propidium iodide (PrI), according to the manufacturer's protocol (BioVision, Mountain View, Calif.). For each drug treatment, 1×10^5 gated events were recorded. Cells negative for both PI and annexin V staining were considered live; annexin V-positive, PrI-negative cells were considered early apoptotic; annexin V-positive, PrI-positive cells were considered late apoptotic. Flow cytometric analyses were performed using a Beckman Coulter FC500 cytometer with Cytomics CXP software (Beckman Coulter, Fullerton, Calif.)."}, "LAGλ-1": {"test_system": "LAGλ-1", "assay": "LAGλ-1 MM tumor model", "type": "in vivo", "conditions": "COMPOUND 1 monotherapy"}, "LAGκ-1B tumor": {"test_system": "LAGκ-1B tumor", "assay": "Intramuscular LAGκ-1B tumor xenograft model (tumor volume)", "conditions": "for delay of tumor volume growth to 300 mm^3: oral 5 mg/kg daily; for delay of tumor volume at 220 mm^3 / Percentage T/C: oral 10 mg/kg twice weekly", "description": "Six- to 8-week-old male severe combined immunodeficient (SCID) mice were obtained from the Jackson Laboratory (Bar Harbor, Me.) and maintained in a specific pathogen-free area in our animal resources facility. All animal studies were conducted according to protocols approved by the Institutional Animal Care and Use Committee. Animals were anesthetized with ketamine, xylazine, and isoflurane prior to surgery and were euthanized when tumors reached 2 cm in diameter.\nBiopsy tissue was surgically implanted in the hind limbs of anesthetized SCID mice and passaged through succeeding generations (32).\nMyeloma tumors (LAGκ-1A or LAGκ-1B) were excised from an anesthetized donor mouse, sectioned into 20 to 40 mm^3 pieces, and surgically implanted into the left superficial gluteal muscle of anesthetized naive SCID mice. Recipient mice received weekly injections of anti-asialo GM1 rabbit serum (Wako Bioproducts, Richmond, Va.) to further suppress immune activity. Mice were blindly assigned to one of the experimental groups, and treatment was initiated 7 to 21 days after tumor implantation. COMPOUND 1 was administered via oral gavage daily (0.5-5.0 mg/kg) or twice weekly (5-10 mg/kg). COMPOUND 1 was also administered twice weekly (W, F) via either IV injection (0.5-3.0 mg/kg) or oral gavage (10 mg/kg), as specified. […] Bortezomib (0.5 mg/kg) was dispensed twice weekly (T, Th) via IV injection. Control treatment consisted of COMPOUND 1 diluent (3.2 mL 5% mannitol and 800 μL propylene glycol) alone.\nAs a direct measurement of tumor growth, calipers were used to assess tumor volume weekly, and the formula for an ellipsoid volume was applied ( 4/3π×[width/2]^2×[length/2]).\nPercent inhibition of tumor growth is represented as the tumor volume of the test drug group over the tumor volume of the untreated group (T/C). The optimal value is the minimal T/C ratio that reflects the maximal tumor growth inhibition achieved. The criterion for efficacy for the T/C ratio is ≦42%, according to National Cancer Institute (NCI) standard criteria (44).\nEfficacy of drug therapy against tumors was standardized to the time (t) required for the untreated tumor to grow to a determined size based on the greatest difference in time to reach a tumor volume between the control and treatment group. This value can be represented as the growth delay (in days) between treated and control (tt−tc) (44).\nTumor growth and hIgG levels were analyzed in terms of treatment group means and standard error. Student's t-test was applied to determine the statistical significance of differences between treatment groups. Minimal significance level was P<0.05."}, "[2]": {"test_system": "apoptosis-inducing factor (AIF)", "assay": "Immunohistochemical analysis of AIF expression in LAGκ-1B tumors", "type": "in vivo, SCID mice", "conditions": "COMPOUND 1 1 mg/kg, bortezomib 0.5 mg/kg, alone or both; tumors excised post-treatment", "description": "LAGκ-1B tumors were fixed in 4% paraformaldehyde and cut into 5 μm sections. Briefly, sections were blocked with Tris-buffered saline with 0.05% Tween-20 (TBST) and 3% BSA for 1 hour at room temperature and then incubated overnight with a rabbit antibody against AIF (Sigma, St. Louis, Mo.). The sections were washed three times with TBST and treated with horse radish […] anti-rabbit antibody (KPL, Gaithersburg, Md.) diluted 1:500 in TBST at room temperature for 2 hours. The slides were washed three times in TBST and placed in 3-amino-9-ethylcarbazole (AEC) buffer for 5 minutes, and color was detected using an AEC kit (Dako, Glostrup, Denmark). Staining was documented using an Olympus BX51 microscope (Olympus Imaging America Inc., Center Valley, Pa.) and analyzed by Microsuite Biological Suite program (Olympus BX51)."}, "RPMI8226 cells [3]": {"test_system": "RPMI8226 cells", "assay": "Cell viability assay (MTS assay), RPMI8226 cells", "type": "cell-based, human", "conditions": "RPMI8226, 48 hours", "description": "Combination indices (CIs) were calculated separately for each combination. […] CIs between 0.9 and 1.1 were considered to indicate additive drug effects (31)."}, "[4]": {"conditions": "bortezomib 0.5 mg/kg IV, COMPOUND 1 1 mg/kg IV, alone or together"}}, "data": [{"compound": "CC(C)C[C@H](NC(=O)[C@@H](NC(=O)c1cccc(-c2ccccc2)n1)[C@@H](C)O)B(O)O", "note": "[COMPOUND 1, [(1R)-1-[[(2S,3R)-3-hydroxy-2-[6-phenyl-pyridine-2-carbonyl)amino]-1-oxobutyl]amino]-3-methylbutylboronic acid]", "values": [{"measurement": "inhibition of viability", "setting": "MM1S cells; COMPOUND 1 0.1-10 nM", "value": "concentration-dependent inhibition of viability"}, {"measurement": "cytotoxicity at 0.00175 µM", "setting": "MM1S cells; Homo sapiens, MM1.S, single-agent COMPOUND 1 1.75 nM, read-out: inhibition of cell viability", "value": "~16", "unit": "%"}, {"measurement": "proportion of cells in early apoptosis (PrI−/Annexin V+)", "setting": "RPMI8226 cells [1]", "value": "10.4 % of cells"}, {"measurement": "Ig levels and tumor volumes", "setting": "LAGλ-1", "value": "statistically significant reduction"}, {"measurement": "tumors, times smaller than control-treated mice", "setting": "LAGκ-1B tumor; 3 mg/kg IV or 10 mg/kg oral twice weekly, after 14 days, P=0.0008 / P=0.0028", "value": "8 to 12", "unit": "times"}, {"measurement": "days to tumor progression", "setting": "LAGκ-1B tumor; [4]", "value": 35, "unit": "days"}, {"measurement": "survival longer than vehicle-treated mice", "setting": "LAGκ-1B tumor; [4]", "value": 20, "unit": "%"}, {"measurement": "tumor growth vs vehicle", "setting": "LAGκ-1B tumor; bortezomib 0.5 mg/kg IV, COMPOUND 1 1 mg/kg IV, alone or together, combination after 21 days P=0.0014", "value": "only modestly suppresses"}, {"measurement": "drug-related / toxicity-related deaths", "setting": "LAGκ-1B tumor; by day 70, bortezomib 0.5 mg/kg IV, COMPOUND 1 1 mg/kg IV, alone or together", "value": "one death each"}, {"measurement": "tumor volume", "setting": "LAGκ-1B tumor; mouse, in vivo", "value": "partially inhibited"}, {"measurement": "body weight", "setting": "LAGκ-1B tumor; mouse, in vivo, po", "value": "without significant loss of body weight"}, {"measurement": "tumor volume inhibition", "setting": "LAGκ-1B tumor; oral 5 mg/kg daily or 10 mg/kg twice weekly, day 35, P=0.0327 / P=0.0018", "value": "significant tumor volume inhibition"}, {"measurement": "delay of tumor volume growth to 300 mm^3", "setting": "LAGκ-1B tumor; day 31 control vs day 42", "value": 11, "unit": "days"}, {"measurement": "delay of tumor volume growth to 300 mm^3", "setting": "LAGκ-1B tumor; vs no treatment", "value": 35.5, "unit": "%"}, {"measurement": "delay of tumor volume at 220 mm^3", "setting": "LAGκ-1B tumor; day 28 control vs day 42", "value": 14, "unit": "days"}, {"measurement": "Percentage T/C", "setting": "LAGκ-1B tumor; day 35", "value": 21.6, "unit": "%"}, {"measurement": "Percentage T/C", "setting": "LAGκ-1B tumor; day 42", "value": 27.5, "unit": "%"}, {"measurement": "Percentage T/C", "setting": "LAGκ-1B tumor; day 49", "value": 26.1, "unit": "%"}, {"measurement": "Percentage T/C", "setting": "LAGκ-1B tumor; day 56", "value": 30.5, "unit": "%"}, {"measurement": "delay of tumor volume at 220 mm^3", "setting": "LAGκ-1B tumor; vs untreated control", "value": 50, "unit": "%"}, {"measurement": "AIF expression vs vehicle-treated tumors", "setting": "[2]", "value": "elevated AIF expression"}, {"measurement": "IC50", "setting": "RPMI8226 cells [3]; Homo sapiens, RPMI-8226", "value": 8.5, "unit": "nM"}, {"measurement": "cytotoxicity at 0.009 µM", "setting": "RPMI8226 cells [3]; Homo sapiens, RPMI-8226, single-agent COMPOUND 1 9.0 nM, read-out: decrease in cell viability", "value": 64, "unit": "%"}, {"measurement": "inhibition of viability", "setting": "RPMI8226 cells [3]; COMPOUND 1 0.1-10 nM", "value": "concentration-dependent inhibition of viability"}]}]}
